Reference: patent US20260022143A1, “Cyclic Peptide Inhibitors of IL-23” (JANSSEN PHARMACEUTICA NV, priority 2022, published 2026)
Starred links: 1 amine or outer side, 2 acyl side, 3 side chain; linkers in the order of their positions; H or OH if unused. Positions of bridges follow the written chain, without caps; N, C: chain ends. Non-standard residues stand in square brackets, D forms with d. Residues, ends and D or L forms follow the SMILES beside them. ξ: configuration not given here. *: point of attachment. X6 = C[N+](C)(C)CCCCCCCc1cn(-c2ccc(C[C@H](N[*:1])C(=O)[*:2])cc2)nn1; Me3N+(CH2)2O(CH2)2O(CH2)2CO = C[N+](C)(C)CCOCCOCCC(=O)*; Trp(7-Me) = Cc1cccc2c(C[C@H](N)C(=O)O)c[nH]c12; 2Nal = N[C@@H](Cc1ccc2ccccc2c1)C(=O)O; 3Pal = N[C@@H](Cc1cccnc1)C(=O)O; ξThr(3R) = C[C@@H](O)C(N)C(=O)O; Lys(Me) = CNCCCC[C@H](N)C(=O)O; Pen = CC(C)(S)[C@H](N)C(=O)O; Thp = NC1(C(=O)O)CCOCC1; X3 = C[N+](C)(C)CCCCC*; Sar = CNCC(=O)O

What was measured:
[1] = Exposed Polar Surface Area (EPSA); format: physicochemical; details: SFC on Chirex 3014 column; sample 1 mM DMSO stock; read-out: EPSA
Summary of the method: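 Compounds, as 1 mM DMSO stock, were injected in duplicate onto an SFC Chirex 3014 column at 35 °C and eluted with a CO2/methanol (20 mM ammonium formate) gradient. EPSA values in Å^2 were derived from retention times using a linear fit to eight calibration standards, reinjected every 20 compounds.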

IL-23R = target: T1, IL-23R (Homo sapiens, UniProt Q5VWK5); test: IL23R Reporter Assay; format: cell-based; details: HEK293 cells containing IL-23R, IL-12RP1 and STAT-inducible firefly luciferase reporter; 10 ng/mL IL-23 (EC90); 5 h at 37° C.; read-out: IL23R Reporter Assay
T1 construct: host or cells: HEK293
T1 sequence (Q5VWK5 24-629): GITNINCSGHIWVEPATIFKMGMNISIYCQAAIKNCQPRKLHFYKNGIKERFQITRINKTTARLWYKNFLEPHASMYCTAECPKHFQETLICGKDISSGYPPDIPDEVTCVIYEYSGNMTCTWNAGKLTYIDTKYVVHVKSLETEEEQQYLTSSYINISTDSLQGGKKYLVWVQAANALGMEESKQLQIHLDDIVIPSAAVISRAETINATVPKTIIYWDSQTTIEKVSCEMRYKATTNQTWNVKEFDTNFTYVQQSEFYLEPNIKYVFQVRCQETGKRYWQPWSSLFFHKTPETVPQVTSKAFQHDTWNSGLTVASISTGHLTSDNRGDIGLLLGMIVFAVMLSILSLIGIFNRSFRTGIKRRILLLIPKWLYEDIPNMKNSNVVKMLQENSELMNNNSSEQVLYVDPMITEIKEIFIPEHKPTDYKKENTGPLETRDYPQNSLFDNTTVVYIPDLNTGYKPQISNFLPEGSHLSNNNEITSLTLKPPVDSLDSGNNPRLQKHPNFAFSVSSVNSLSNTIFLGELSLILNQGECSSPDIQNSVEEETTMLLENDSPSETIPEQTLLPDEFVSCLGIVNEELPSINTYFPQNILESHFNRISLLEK

| EPSA [1] [A^2] | IC50 (IL-23R) [nM] | Structure (SMILES) |
| --- | --- | --- |
| 165 | 3.8 | CC(=O)N(C)CCCC[C@@H]1NC(=O)[C@H](Cc2c[nH]c3c(C)cccc23)NC(=O)[C@H]([C@@H](C)O)NC(=O)[C@H](CC(=O)N(C)C)NC(=O)[C@@H](NC(=O)CCOCCOCC[N+](C)(C)C)CSSC[C@@H](C(=O)N[C@@H](Cc2ccc(OCCCCC[N+](C)(C)C)cc2)C(=O)N[C@@H](Cc2ccc3ccccc3c2)C(=O)NC2(C(=O)N[C@@H](CCCCN(C)C(C)=O)C(=O)N[C@@H](CC(N)=O)C(=O)N[C@@H](Cc3cccnc3)C(=O)N(C)CC(=O)N(C)C)CCOCC2)NC1=O [compound 483, cPEG3aCO-C(3)-N(N(Me)2)-T-7MeW-K(NMeAc)-C(3)-TMAPF-2Nal-THP-K(NMeAc)-N-3Pya-Sar-CON(Me)2] ({Me3N+(CH2)2O(CH2)2O(CH2)2CO}-CD(NMe2)T[Trp(7-Me)][Lys(Me)](Ac)CY(X3)[2Nal][Thp][Lys(Me)](Ac)N[3Pal][Sar]-NMe2; disulfide 1-6) |
| 163 | 3.1 | CC(=O)N(C)CCCC[C@@H]1NC(=O)[C@H](Cc2c[nH]c3c(C)cccc23)NC(=O)[C@H]([C@@H](C)O)NC(=O)[C@H](CC(=O)N(C)C)NC(=O)[C@@H](NC(=O)CCOCCOCC[N+](C)(C)C)C(C)(C)SSC(C)(C)[C@@H](C(=O)N[C@@H](Cc2ccc(OCCCCC[N+](C)(C)C)cc2)C(=O)N[C@@H](Cc2ccc3ccccc3c2)C(=O)NC2(C(=O)N[C@@H](CCCCN(C)C(C)=O)C(=O)N[C@@H](CC(N)=O)C(=O)N[C@@H](Cc3cccnc3)C(=O)N(C)CC(=O)N(C)C)CCOCC2)NC1=O [compound 484, cPEG3aCO-C(3)-N(N(Me)2)-T-7MeW-K(NMeAc)-Pen(3)-TMAPF-2Nal-THP-K(NMeAc)-N-3Pya-Sar-CON(Me)2] ({Me3N+(CH2)2O(CH2)2O(CH2)2CO}-[Pen]D(NMe2)T[Trp(7-Me)][Lys(Me)](Ac)[Pen]Y(X3)[2Nal][Thp][Lys(Me)](Ac)N[3Pal][Sar]-NMe2; disulfide 1-6) |
| 164 | 4.4 | CC(=O)N(C)CCCC[C@@H]1NC(=O)[C@H](Cc2c[nH]c3c(C)cccc23)NC(=O)[C@H]([C@@H](C)O)NC(=O)[C@H](CC(=O)N(C)C)NC(=O)[C@@H](NC(=O)CCOCCOCC[N+](C)(C)C)C(C)(C)SSC(C)(C)[C@@H](C(=O)N[C@@H](Cc2ccc(-n3cc(CCCCCCC[N+](C)(C)C)nn3)cc2)C(=O)N[C@@H](Cc2ccc3ccccc3c2)C(=O)NC2(C(=O)N[C@@H](CCCCN(C)C(C)=O)C(=O)N[C@@H](CC(N)=O)C(=O)N[C@@H](Cc3cccnc3)C(=O)N(C)CC(=O)N(C)C)CCOCC2)NC1=O [compound 486, cPEG3aCO-Pen(3)-N(N(Me)2)-T-7MeW-K(NMeAc)-Pen(3)-F(4TzlTMA7)-2Nal-THP-K(NMeAc)-N-3Pya-Sar-CON(Me)2] ({Me3N+(CH2)2O(CH2)2O(CH2)2CO}-[Pen]D(NMe2)T[Trp(7-Me)][Lys(Me)](Ac)[Pen][X6][2Nal][Thp][Lys(Me)](Ac)N[3Pal][Sar]-NMe2; disulfide 1-6) |
| 164 | 3.4 | CC(=O)N(C)CCCC[C@H](NC(=O)[C@H](CC(C)C)NC(=O)[C@H](Cc1ccc2ccccc2c1)NC(=O)[C@H](Cc1ccc(OCCCCC[N+](C)(C)C)cc1)NC(=O)[C@H]1NC(=O)[C@H](CCCCN(C)C(C)=O)NC(=O)[C@H](Cc2c[nH]c3c(C)cccc23)NC(=O)C([C@@H](C)O)NC(=O)[C@H](CC(=O)N(C)C)NC(=O)[C@@H](NC(=O)CCOCCOCC[N+](C)(C)C)C(C)(C)SSC1(C)C)C(=O)N[C@@H](CC(N)=O)C(=O)N[C@@H](Cc1cccnc1)C(=O)N(C)CC(=O)N(C)C (stereo partly drawn) [compound 487, cPEG3aCO-Pen(3)-N(N(Me)2)-T-7MeW-K(NMeAc)-Pen(3)-TMAPf-2Nal-L-K(NMeAc)-N-3Pya-Sar-CON(Me)2] ({Me3N+(CH2)2O(CH2)2O(CH2)2CO}-[Pen]D(NMe2)[ξThr(3R)][Trp(7-Me)][Lys(Me)](Ac)[Pen]Y(X3)[2Nal]L[Lys(Me)](Ac)N[3Pal][Sar]-NMe2; disulfide 1-6) |
| 165 | 5.7 | CC(=O)N(C)CCCC[C@H](NC(=O)[C@H](C)NC(=O)[C@H](Cc1ccc2ccccc2c1)NC(=O)[C@H](Cc1ccc(OCCCCC[N+](C)(C)C)cc1)NC(=O)[C@H]1NC(=O)[C@H](CCCCN(C)C(C)=O)NC(=O)[C@H](Cc2c[nH]c3c(C)cccc23)NC(=O)C([C@@H](C)O)NC(=O)[C@H](CC(=O)N(C)C)NC(=O)[C@@H](NC(=O)CCOCCOCC[N+](C)(C)C)C(C)(C)SSC1(C)C)C(=O)N[C@@H](CC(N)=O)C(=O)N[C@@H](Cc1cccnc1)C(=O)N(C)CC(=O)N(C)C (stereo partly drawn) [compound 488, cPEG3aCO-Pen(3)-N(N(Me)2)-T-7MeW-K(NMeAc)-Pen(3)-TMAPf-2Nal-A-K(NMeAc)-N-3Pya-Sar-CON(Me)2] ({Me3N+(CH2)2O(CH2)2O(CH2)2CO}-[Pen]D(NMe2)[ξThr(3R)][Trp(7-Me)][Lys(Me)](Ac)[Pen]Y(X3)[2Nal]A[Lys(Me)](Ac)N[3Pal][Sar]-NMe2; disulfide 1-6) |
| 164 | 3.7 | CC(=O)N(C)CCCC[C@H](NC(=O)C1(NC(=O)[C@H](Cc2ccc3ccccc3c2)NC(=O)[C@H](Cc2ccc(OCCCCC[N+](C)(C)C)cc2)NC(=O)[C@H]2NC(=O)[C@H](CC(C)C)NC(=O)[C@H](Cc3c[nH]c4c(C)cccc34)NC(=O)[C@H]([C@@H](C)O)NC(=O)[C@H](CC(=O)N(C)C)NC(=O)[C@@H](NC(=O)CCOCCOCC[N+](C)(C)C)C(C)(C)SSC2(C)C)CCOCC1)C(=O)N[C@@H](CC(N)=O)C(=O)N[C@@H](Cc1cccnc1)C(=O)N(C)CC(=O)N(C)C [compound 489, cPEG3aCO-Pen(3)-N(N(Me)2)-T-7MeW-L-Pen(3)-TMAPF-2Nal-THP-K(NMeAc)-N-3Pya-Sar-CON(Me)2] ({Me3N+(CH2)2O(CH2)2O(CH2)2CO}-[Pen]D(NMe2)T[Trp(7-Me)]L[Pen]Y(X3)[2Nal][Thp][Lys(Me)](Ac)N[3Pal][Sar]-NMe2; disulfide 1-6) |
| 168 | 8.3 | CC(=O)NCCCC[C@@H]1NC(=O)[C@H](Cc2c[nH]c3c(C)cccc23)NC(=O)[C@H]([C@@H](C)O)NC(=O)[C@H](CC(N)=O)NC(=O)[C@@H](NC(=O)COCCOCCNC(=O)COCCOCCNC(=O)CCCc2ccc(I)cc2)C(C)(C)SSC(C)(C)[C@@H](C(=O)N[C@@H](Cc2ccc(OCCCCC[N+](C)(C)C)cc2)C(=O)N[C@@H](Cc2ccc3ccccc3c2)C(=O)NC2(C(=O)N[C@@H](CCCCNC(C)=O)C(=O)N[C@@H](CC(N)=O)C(=O)N[C@@H](Cc3cccnc3)C(=O)N(C)CC(N)=O)CCOCC2)NC1=O [compound 491, IPBPEG2PEG2CO-Pen(3)-N-T-7MeW-K(Ac)-Pen(3)-TMAPF-2Nal-THP-K(Ac)-N-3Pya-Sar-CONH2] |
| 165 | 6.4 | CC(=O)N(C)CCCC[C@H](NC(=O)C1(NC(=O)[C@H](Cc2ccc3ccccc3c2)NC(=O)[C@H](Cc2ccc(OCCCCC[N+](C)(C)C)cc2)NC(=O)[C@H]2NC(=O)[C@H](C)NC(=O)[C@H](Cc3c[nH]c4c(C)cccc34)NC(=O)[C@H]([C@@H](C)O)NC(=O)[C@H](CC(=O)N(C)C)NC(=O)[C@@H](NC(=O)CCOCCOCC[N+](C)(C)C)C(C)(C)SSC2(C)C)CCOCC1)C(=O)N[C@@H](CC(N)=O)C(=O)N[C@@H](Cc1cccnc1)C(=O)N(C)CC(=O)N(C)C [compound 492, cPEG3aCO-Pen(3)-N(N(Me)2)-T-7MeW-A-Pen(3)-TMAPF-2Nal-THP-K(NMeAc)-N-3Pya-Sar-CON(Me)2] ({Me3N+(CH2)2O(CH2)2O(CH2)2CO}-[Pen]D(NMe2)T[Trp(7-Me)]A[Pen]Y(X3)[2Nal][Thp][Lys(Me)](Ac)N[3Pal][Sar]-NMe2; disulfide 1-6) |
| 133 | 12 | CC(=O)N(C)CCCC[C@@H]1NC(=O)[C@H](Cc2c[nH]c3c(C)cccc23)NC(=O)[C@H](C)NC(=O)[C@H](CC(=O)N(C)C)NC(=O)[C@@H](NC(=O)CCOCCOCC[N+](C)(C)C)C(C)(C)SSC(C)(C)[C@@H](C(=O)N[C@@H](Cc2ccc(OCCCCC[N+](C)(C)C)cc2)C(=O)N[C@@H](Cc2ccc3ccccc3c2)C(=O)NC2(C(=O)N[C@@H](CCCCN(C)C(C)=O)C(=O)N[C@@H](CC(N)=O)C(=O)N[C@@H](Cc3cccnc3)C(=O)N(C)CC(=O)N(C)C)CCOCC2)NC1=O [compound 494, cPEG3aCO-Pen(3)-N(N(Me)2)-A-7MeW-K(NMeAc)-Pen(3)-TMAPF-2Nal-THP-K(NMeAc)-N-3Pya-Sar-CON(Me)2] ({Me3N+(CH2)2O(CH2)2O(CH2)2CO}-[Pen]D(NMe2)A[Trp(7-Me)][Lys(Me)](Ac)[Pen]Y(X3)[2Nal][Thp][Lys(Me)](Ac)N[3Pal][Sar]-NMe2; disulfide 1-6) |
